This note sets out measurements from patent US10201533B2, “Substituted quinolizine derivatives useful as HIV integrase inhibitors” (priority 2013, dated 2019).

For this test, the system named is HIV-1 (NL4-3 strain). Description: microbe, parasite or virus in culture. The class given is cell-based. The conditions noted are these: MT4-GFP cells infected with HIV-1 NL4-3, IP or IC50 from 4-parameter dose response curve.
Setting [1] is: Human immunodeficiency virus 1, NL43, 0% normal human serum (NHS), read-out: WILD TYPE CELL ASSAY Viking IP (0% NHS).
Setting [2] is: Human immunodeficiency virus 1, NL43, 100% normal human serum (NHS), read-out: WILD TYPE CELL ASSAY Viking IP (100% NHS).
The mark [3] stands for this setting: 100% normal human serum (NHS), read-out: WILD TYPE CELL ASSAY Viking IP (100% NHS).
Setting [4] is: 0% normal human serum (NHS), read-out: WILD TYPE CELL ASSAY Viking IP (0% NHS).

Where two headings read alike, the source gives them in different places.

In the case of `COCCC[C@@]1(C)C(=O)c2c(O)c(=O)c(C(=O)NCc3c(F)cccc3F)cn2C[C@@H]1OC` [Compound 84], the IC50 stood at 1.8 nM under setting [1] and 31 nM under setting [2]. As to `C[C@@]12CCCCO[C@@H]1Cn1cc(C(=O)NCc3c(F)cc(F)cc3F)c(=O)c(O)c1C2=O` (single isomer, unassigned) [Compound 41], the IC50 was 34 nM under setting [3] and 2 nM under setting [1].

Turning to `C[C@]12CCCCO[C@@H]1Cn1cc(C(=O)NCc3cccc(Cl)c3F)c(=O)c(O)c1C2=O` (single isomer, unassigned) [Compound 45], the IC50 came out at 4750 nM under setting [3] and 2.3 nM under setting [1]. With `C[C@]12CCCO[C@H]1Cn1cc(C(=O)NCc3cccc(Cl)c3F)c(=O)c(O)c1C2=O` (single isomer, unassigned) [Compound 26], the IC50 reads like this: under setting [1], 1.1 nM; under setting [2], 2550 nM. With `COCCC[C@]1(C)C(=O)c2c(O)c(=O)c(C(=O)NCc3c(F)cccc3F)cn2C[C@@H]1OC` [Compound 82], the IC50 turned out to be 4.1 nM under setting [4] and 160 nM under setting [3]. In the case of `C[C@@]12CCCC[C@]1(O)Cn1cc(C(=O)NCc3ccc(F)cc3F)c(=O)c(O)c1C2=O` [Compound 94], the IC50 reads like this: under setting [1], 1.8 nM; under setting [2], 282 nM. Regarding `C[C@]12CCCCO[C@@H]1Cn1cc(C(=O)NCc3cccc(Cl)c3F)c(=O)c(O)c1C2=O` (single isomer, unassigned) [Compound 46], the IC50 by setting is: under setting [4], 1.3 nM; under setting [3], 459 nM. On to `CO[C@@]12CCCCC[C@]1(C)C(=O)c1c(O)c(=O)c(C(=O)NCc3ccc(F)cc3F)cn1C2` [Compound 118], for which the IC50 is 1.4 nM under setting [1] and 873 nM under setting [2]. As for `COCC[C@@]1(C)C(=O)c2c(O)c(=O)c(C(=O)NCc3c(F)cccc3F)cn2C[C@@H]1OC` [Compound 70], the IC50 reads like this: under setting [1], 1.9 nM; under setting [2], 80 nM. In the same order, the values of `C[C@]12CCCO[C@H]1Cn1cc(C(=O)NCc3cc(F)c(F)c(F)c3)c(=O)c(O)c1C2=O` (single isomer, unassigned) [Compound 28] are 4.4 nM and over 8400 nM. In the same order, the values of `C[C@]12CCCO[C@H]1Cn1cc(C(=O)NCc3c(F)cc(F)cc3F)c(=O)c(O)c1C2=O` (single isomer, unassigned) [Compound 23] are 1.5 nM and 1260 nM.

As to `C[C@]12CCCCO[C@@H]1Cn1cc(C(=O)NCc3ccc(F)cc3F)c(=O)c(O)c1C2=O` (single isomer, unassigned) [Compound 43], the IC50 by setting is: under setting [3], 2000 nM; under setting [1], 3.2 nM. In the case of `COC[C@]1(C)C(=O)c2c(O)c(=O)c(C(=O)NCc3ccc(F)cc3F)cn2C[C@@H]1OC` [Compound 54], the IC50 amounted to 1.8 nM under setting [4] and 55 nM under setting [3]. `COC[C@@]1(C)C(=O)c2c(O)c(=O)c(C(=O)NCc3ccc(F)cc3F)cn2C[C@@H]1OC` [Compound 56]: the IC50 reads like this: under setting [3], 342 nM; under setting [1], 3.4 nM. `COC12CCCC1(C)C(=O)c1c(O)c(=O)c(C(=O)NCc3ccc(F)c(F)c3F)cn1C2` (stereo not drawn) [Compound 107]: the IC50 is, setting by setting: under setting [1], 5.7 nM; under setting [2], 4930 nM. Regarding `COCC[C@@]1(C)C(=O)c2c(O)c(=O)c(C(=O)NCc3c(F)cccc3F)cn2C[C@@H]1OC` [Compound 71], the IC50 was 2.2 nM under setting [4] and 89 nM under setting [3]. For the compound `Cc1cc(CNC(=O)c2cn3c(c(O)c2=O)C(=O)[C@@]2(C)CCCO[C@H]2C3)ccc1F` (single isomer, unassigned) [Compound 24], the IC50 under setting [1] turned out to be 4.3 nM and the IC50 under setting [2] is over 8400 nM.

For `COCO[C@@]12CCCC[C@]1(C)C(=O)c1c(O)c(=O)c(C(=O)NCc3ccc(F)cc3F)cn1C2` [Compound 110], the IC50 was 2.1 nM under setting [1] and 140 nM under setting [2]. Regarding `COCCC[C@]1(C)C(=O)c2c(O)c(=O)c(C(=O)NCc3ccccc3F)cn2C[C@@H]1OC` [Compound 87], the IC50 is, setting by setting: under setting [4], 8 nM; under setting [3], 269 nM.

Take `COCC[C@@]1(C)C(=O)c2c(O)c(=O)c(C(=O)NCc3ccccc3F)cn2C[C@@H]1OC` [Compound 66]: the IC50 is, setting by setting: under setting [1], 2.5 nM; under setting [2], 126 nM. In the same order, the values of `C[C@]12CCCO[C@@H]1Cn1cc(C(=O)NCc3ccc(F)cc3F)c(=O)c(O)c1C2=O` (racemic) [Compound 9] are 2.6 nM and 235 nM. For the compound `CC1(C)CCC[C@]2(C)C(=O)c3c(O)c(=O)c(C(=O)NCc4ccc(F)cc4F)cn3C[C@]12O` [Compound 108], the IC50 was 2 nM under setting [1] and 105 nM under setting [2]. In the same order, the values of `C[C@]12CCCO[C@H]1Cn1cc(C(=O)NCc3ccc(F)c(Cl)c3)c(=O)c(O)c1C2=O` (single isomer, unassigned) [Compound 30] are 2.8 nM and over 8400 nM. As to `CO[C@@]12CCCC[C@]1(C)C(=O)c1c(O)c(=O)c(C(=O)NCc3ccc(F)cc3F)cn1C2` [Compound 112], the IC50 by setting is: under setting [1], 0.65 nM; under setting [2], 4110 nM. For the compound `C[C@]12CCCCO[C@H]1Cn1cc(C(=O)NCc3cccc(Cl)c3F)c(=O)c(O)c1C2=O` [Compound 37], the IC50 under setting [3] stood at 80 nM and the IC50 under setting [1] amounted to 1.5 nM. On to `C[C@]12CCCO[C@H]1Cn1cc(C(=O)NCc3ccc(F)cc3F)c(=O)c(O)c1C2=O` [Compound 8], for which the IC50 reads like this: under setting [4], 1.8 nM; under setting [3], 500 nM. As for `COCCC[C@@]1(C)C(=O)c2c(O)c(=O)c(C(=O)NCc3ccccc3F)cn2C[C@@H]1OC` [Compound 88], the IC50 amounted to 2.3 nM under setting [1] and 63 nM under setting [2].

On to `COCCC[C@]1(C)C(=O)c2c(O)c(=O)c(C(=O)NCc3cccc(Cl)c3F)cn2C[C@@H]1OC` [Compound 78], for which the IC50 is, setting by setting: under setting [3], 15 nM; under setting [1], 0.8 nM. `C[C@]12CCCC[C@@]1(O)Cn1cc(C(=O)NCc3ccc(F)cc3F)c(=O)c(O)c1C2=O` [Compound 95]: the IC50 worked out at 2.2 nM under setting [1] and 41 nM under setting [2]. For the compound `COCC[C@]1(C)C(=O)c2c(O)c(=O)c(C(=O)NCc3c(F)cccc3F)cn2C[C@@H]1OC` [Compound 73], the IC50 is 1 nM under setting [4] and 22 nM under setting [3].

As to `COCCC[C@]1(C)C(=O)c2c(O)c(=O)c(C(=O)NCc3c(F)cc(F)cc3F)cn2C[C@@H]1OC` [Compound 90], the IC50 reads like this: under setting [4], 0.8 nM; under setting [3], 13 nM. On the same counts, the results for `C[C@]12CCCCO[C@@H]1Cn1cc(C(=O)NCc3ccc(F)cc3F)c(=O)c(O)c1C2=O` (single isomer, unassigned) [Compound 44] are 1.9 nM and 316 nM. In the case of `CC1(C)C(=O)c2c(O)c(=O)c(C(=O)NCc3ccc(F)cc3F)cn2CC1O` (stereo not drawn) [Compound 4], the IC50 reads like this: under setting [1], 74 nM; under setting [2], 1850 nM. In the case of `COCCC[C@@]1(C)C(=O)c2c(O)c(=O)c(C(=O)NCc3c(F)cc(F)cc3F)cn2C[C@@H]1OC` [Compound 93], the IC50 turned out to be 1.2 nM under setting [4] and 52 nM under setting [3].

As to `C[C@]12CCCO[C@H]1Cn1cc(C(=O)NCc3ccc(F)c(F)c3F)c(=O)c(O)c1C2=O` (single isomer, unassigned) [Compound 20], the IC50 runs as follows: under setting [1], 3.5 nM; under setting [2], 839 nM. Consider `C[C@@]12CCCO[C@@H]1Cn1cc(C(=O)NCc3ccc(F)c(F)c3F)c(=O)c(O)c1C2=O` (single isomer, unassigned) [Compound 17], for which the IC50 runs as follows: under setting [1], 2.9 nM; under setting [2], 117 nM. As to `COCC[C@]1(C)C(=O)c2c(O)c(=O)c(C(=O)NCc3cccc(Cl)c3F)cn2C[C@@H]1OC` [Compound 64], the IC50 by setting is: under setting [3], 2960 nM; under setting [1], 0.9 nM. In the case of `C[C@]12CCCO[C@H]1Cn1cc(C(=O)NCc3ccc(F)cc3)c(=O)c(O)c1C2=O` (single isomer, unassigned) [Compound 19], the IC50 by setting is: under setting [1], 4.6 nM; under setting [2], 709 nM. Consider `COCC[C@]1(C)C(=O)c2c(O)c(=O)c(C(=O)NCc3c(F)cccc3F)cn2C[C@@H]1OC` [Compound 72], for which the IC50 reads like this: under setting [4], 2.2 nM; under setting [3], 467 nM.

For the compound `C[C@]12CCCCO[C@H]1Cn1cc(C(=O)NCc3cccc(Cl)c3F)c(=O)c(O)c1C2=O` [Compound 38], the IC50 reads like this: under setting [4], 1.8 nM; under setting [3], 1600 nM. `COCCC[C@@]1(C)C(=O)c2c(O)c(=O)c(C(=O)NCc3cccc(Cl)c3F)cn2C[C@@H]1OC` [Compound 80]: the IC50 is, setting by setting: under setting [3], 101 nM; under setting [1], 1.1 nM. Regarding `C[C@@]12CCCO[C@@H]1Cn1cc(C(=O)NCc3ccc(F)c(Cl)c3)c(=O)c(O)c1C2=O` (single isomer, unassigned) [Compound 16], the IC50 is 4.1 nM under setting [1] and 257 nM under setting [2]. Regarding `COC1(C)CCn2cc(C(=O)NCc3ccc(F)cc3F)c(=O)c(O)c2C1=O` (stereo not drawn) [Compound 51], the IC50 runs as follows: under setting [3], 2200 nM; under setting [1], 3.6 nM. Turning to `C[C@@]12CCCC[C@]1(O)Cn1cc(C(=O)NCc3ccc(F)c(Cl)c3)c(=O)c(O)c1C2=O` [Compound 96], the IC50 was 6.2 nM under setting [1] and over 8400 nM under setting [2]. As to `C[C@]12CCCCC[C@@]1(O)Cn1cc(C(=O)NCc3ccc(F)cc3F)c(=O)c(O)c1C2=O` [Compound 101], the IC50 reads like this: under setting [1], 2.1 nM; under setting [2], 105 nM. Take `O=C(NCc1ccc(F)cc1F)c1cn2c(c(O)c1=O)C(=O)C1CCOC1C2` (stereo not drawn) [Compound 10]: the IC50 under setting [1] was found to be 66 nM.

For `C[C@@]12CC=CCO[C@@H]1Cn1cc(C(=O)NCc3ccc(F)cc3F)c(=O)c(O)c1C2=O` [Compound 47], the IC50 is, setting by setting: under setting [3], 70 nM; under setting [1], 1.3 nM.
